Where two headings read alike, the source gives them in different places. Each block holds one compound with its values, some of them ahead of it.
Assay: Multi-component pharmacokinetic study of GQD, GQD-GC and single herb extracts in rats (plasma, LC/MS/MS)
Assay type: in vivo, Sprague-Dawley rats
Settings: for AUC(0-t) / Cmax / half-life / Tmax: male, Sprague-Dawley, rat; for Tmax: read-out: Tmax; for plasma concentrations, effect of GQD compared with Gan-Cao: rats, oral
Experimental: Male Sprague-Dawley rats (220–250 g) were used for PK study, and the details were described in Supplemental Data. All procedures were in accordance with the National Institutes of Health Guide for the Care and Use of Laboratory Animals.
For PK study of GQD and its component herbs, rats were randomly divided into six groups (n = 10 for each group) before oral administration.
All blood samples were immediately centrifuged at 6,000 rpm (4°C) for 20 min to obtain plasma. The plasma samples were stored at −80°C.
A Finnigan TSQ Quantum triple quadrupole mass spectrometer was connected to a Surveyor HPLC via ESI interface (ThermoFisher). High purity nitrogen was used as the sheath and auxiliary gas; Ultra-high purity argon was used as the collision gas (1.5 mTorr). Q1 and Q3 quadrupoles were set at unit resolution. […] The column temperature was 40°C. The mobile phase consisted of acetonitrile containing 2% (v/v) methanol (A) and water containing 0.1% (v/v) formic acid (B). […] An aliquot of 5 μL was injected for analysis. UV spectra were obtained by scanning from 200 to 400 nm. The mass spectrometer was operated in the (+)-ESI mode. The optimized parameters were as follows: sheath gas (N2), 50 arb; auxiliary gas (N2), 5 arb; spray voltage, 4.0 kV; capillary temperature, 330°C; collision energy, see Table S1. Analytes were detected in the selected reaction monitoring (SRM) mode. Data were processed by Xcalibur 2.0.7 software (ThermoFisher).
LC/MS/MS calibration and quantitation data were processed with Xcalibur 2.0.7 software (ThermoFisher). The maximal plasma concentrations (Cmax) and their time of occurrence (Tmax) were obtained directly from the measured data. Other pharmacokinetic parameters were calculated by non-compartment or compartment models using WinNonlin® software (v6.1, Pharsight). Unless otherwise stated, results were expressed as the mean ± SD. Statistical significance in differences of the means was determined by Student's t–test, with a significance level of P < 0.05.
Herbal materials and extracts.
The four component herbs, Puerariae Lobatae Radix (Ge-Gen, GG), Scutellariae Radix (Huang-Qin, HQ), Coptidis Rhizoma (Huang-Lian, HL), and Glycyrrhizae Radix et Rhizoma Praeparata cum Melle (Gan-Cao, GC) were purchased from Tianheng Pharmacy. GQD was prepared by decocting the four component herbs […]
pre-extraction of Ge-Gen using 200 mL of water for 0.5 h. The decoctions were combined, filtered, and concentrated in vacuum at 50 °C. GQD-GC was prepared using the same procedure, except that Gan-Cao was removed from the formula. Final concentration of the GQD-GC extract was equivalent to 1.0 g of the crude drugs per mL. For single herb extracts, the herbs were decocted in 8-fold volume of water for […]
Final concentrations of the extracts were 1.0 g/mL for Ge-Gen, and 0.5 g/mL for Huang-Qin, Huang-Lian and […]
For pharmacokinetic study, Male Sprague-Dawley rats (220-250 g) were obtained from the Laboratory Animal Center of Peking University Health Science Center. The […]
The rats had free access to tap water and soy-free custom diet (Ke’ao Xieli Co.). All procedures were in accordance with the National Institutes of Health Guide for the Care and Use of Laboratory Animals […]
Experimental details for the PK study
1. Preparation of internal standard solution, calibration standard solutions, and quality control solutions […]
internal standard solution. Reference standard compounds were dissolved in the internal standard solution to prepare individual stock solutions (1.0 mg/mL). These […]
each compound. The standard solution was then serially diluted to obtain calibration […]
Quality control stock solutions were prepared at three concentration levels as high QC (HQC), middle QC (MQC), and low QC (LQC), based on linear ranges of the analytes.
2.1. Sample preparation for pharmacokinetic study
The calibration standard and quality control solutions for pharmacokinetic study were […]

[1] = plasma, po, 18.9 g/kg, GQD group: rats, oral GQD extract 18.9 g/kg, plasma, read-out: AUClast
[2] = GQD group: rats, oral GQD extract 18.9 g/kg, plasma, read-out: Cmax
[3] = GQD group: rats, oral GQD extract 18.9 g/kg, plasma, read-out: T1/2 (converted)
[4] = GQD group: rats, oral GQD extract 18.9 g/kg, plasma

AUC (Gan-Cao group: rats, oral 2.36 g/kg, plasma): not detected
AUC(0-t) [1]: 37.9 ± 29.9 ng·h/mL
AUC(0-t) (plasma, po, 18.9 g/kg, GQD group: rats, oral GQD 18.9 g/kg (1.5-fold of clinical dosage), plasma, read-out: AUClast): 37.9 ± 29.9 ng·h/mL
Cmax [2]: 7.47 ± 8.1 ng/mL
half-life [3]: 11.3 ± 3.38 h
Tmax [4]: 2 ± 1.24 h
plasma concentrations, effect of GQD compared with Gan-Cao: improved
SMILES: COc1c(CC=C(C)C)c(O)cc2oc(=O)c(-c3ccc(O)cc3O)cc12 [Compound 30, glycycoumarin]

AUC(0-t) (plasma, po, 2.36 g/kg, GC (Gan-Cao) group: rats, oral extract 2.36 g/kg, plasma, read-out: AUClast): 19.9 ± 7.99 ng·h/mL
AUC(0-t) [1]: 94.2 ± 32.6 ng·h/mL
Cmax (GC (Gan-Cao) group: rats, oral extract 2.36 g/kg, plasma, read-out: Cmax): 1.71 ± 1 ng/mL
half-life (GC (Gan-Cao) group: rats, oral extract 2.36 g/kg, plasma, read-out: T1/2 (converted)): 3.22 ± 0.87 h
Tmax (GC (Gan-Cao) group: rats, oral extract 2.36 g/kg, plasma): 0.33 ± 0.13 h
Cmax [2]: 8.62 ± 0.39 ng/mL
half-life [3]: 23.8 ± 16.8 h
Tmax [4]: 2.92 ± 0.08 h
plasma concentrations, effect of GQD compared with Gan-Cao: improved
SMILES: COc1ccc(-c2coc3cc(O)ccc3c2=O)cc1 [Compound 32, formononetin]

SMILES: O=c1cc(-c2ccccc2)oc2cc(O)c(O)c(O)c12 [Compound 12, baicalein]
AUC(0-t) (plasma, po, 3.54 g/kg, HQ (Huang-Qin) group: rats, oral extract 3.54 g/kg, plasma, read-out: AUClast): 19.5 ± 11.2 ng·h/mL
AUC(0-t) [1]: 108 ± 47 ng·h/mL
Cmax [2]: 11.1 ± 0.66 ng/mL
half-life [3]: 7.57 ± 0.21 h
Tmax [4]: 0.42 ± 0.03 h
Cmax (HQ (Huang-Qin) group: rats, oral extract 3.54 g/kg, plasma, read-out: Cmax): 3.46 ± 0.34 ng/mL
half-life (HQ (Huang-Qin) group: rats, oral extract 3.54 g/kg, plasma, read-out: T1/2 (converted)): 5.99 ± 1.23 h
Tmax (HQ (Huang-Qin) group: rats, oral extract 3.54 g/kg, plasma): 1 ± 0.64 h

SMILES: O=c1c(-c2ccc(O)cc2)coc2cc(O)ccc12 [Compound 3, daidzein]
Cmax (in vivo, po, 9.45 g/kg): 188 ± 10.4 ng/mL
half-life (in vivo, po, 9.45 g/kg): 5.12 ± 0.87 h
AUC(0-t) (in vivo, po, 9.45 g/kg, AUClast): 2640 ± 1150 ng·h/mL
Cmax (in vivo, po, 16.5 g/kg): 83.5 ± 3.23 ng/mL
half-life (in vivo, po, 16.5 g/kg): 4.28 ± 1.47 h
AUC(0-t) (in vivo, po, 16.5 g/kg, AUClast): 674 ± 604 ng·h/mL
Cmax (in vivo, po, 18.9 g/kg): 186 ± 36.2 ng/mL
half-life (in vivo, po, 18.9 g/kg): 6.23 ± 1.36 h
AUC(0-t) (in vivo, po, 18.9 g/kg, AUClast): 3050 ± 998 ng·h/mL
Tmax (in vivo, GG (Ge-Gen) group: rats, oral extract 9.45 g/kg, plasma): 8 ± 0.14 h
Tmax (in vivo, GQD group: rats, oral GQD extract 18.9 g/kg, plasma): 8 ± 12.8 h
Tmax (in vivo, GQD-GC group (GQD without Gan-Cao): rats, oral 16.5 g/kg, plasma): 0.25 ± 0.32 h

Source: article PMC6018403 (Frontiers in Pharmacology, 2018)
